Laboratory results from US6656510B2, “Hyperforin derivatives, use thereof and formulations containing them” (Indena S.p.A., priority 1998, dated 2003).

Tests used:
[1] = after only a few weeks; WO 97/13489; cited from earlier work
[2] = system: escape deficit (antidepressive effect); assay: escape deficit development test; type: in vivo; conditions: rats, 2 week pre-treatment, escapes out of 30 stimuli
Experimental: In the escape deficit development test, rats are restrained and subjected to mild, short, unavoidable electric shocks for 50 minutes. This is known as the pre-test. 24 hours later, the rats are tested for their ability to avoid the same stimuli on their tails, in a situation where […]. A rat on the average makes 26 escapes out of 30 stimuli (naive controls), whereas a rat subjected to pre-test only makes 1 to 3 escapes (ED controls). […] The compounds of the invention, when administered to rats one hour before their exposure to the unavoidable stress, cause an increase in reactivity to the escape test. This increase in reactivity is enhanced when pre-treatment is effected for 1 to 2 weeks.

In the case of `CC(C)=CCC[C@]1(C)[C@@H](CC=C(C)C)C[C@@]2(CC=C(C)C)C(=O)[C@]1(C(=O)C(C)C)C(=O)C(CC=C(C)C)=C2O` [hyperforin], the “hyperforin content of a water-alcohol extract of St. Johns wort” value [1] is given as “falls almost to zero”.

For `CC(=O)OC1=C(CC=C(C)C)C(=O)[C@]2(C(=O)C(C)C)C(=O)[C@]1(CC=C(C)C)C[C@H](CC=C(C)C)[C@@]2(C)CCC=C(C)C` [Hyperforin acetate], the “Number of Escapes” value ([2]; 6.25 mg/Kg) was 12.6 ± 2.8, the “Number of Escapes” value ([2]; 12.5 mg/Kg) was 17.3 ± 1.9 and the “Number of Escapes” value ([2]; 25.0 mg/Kg) was 21.2 ± 1.3.
